Measurements from US11497757B2, “Silanol based therapeutic payloads” (BlinkBio, Inc., priority 2016, dated 2022).

Tests used:
KB cells = assay: CellTiter-Glo cell viability, washout protocol; type: cell-based; settings: for EC50: washout protocol: 2 h incubation, wash, additional 70 h, siloxane based conjugates; for % Kill (48 h): washout protocol
Experimental: Washout protocol: KB cells in culture were seeded in white clear bottom 96-well tissue culture plate at a density of 5,000 cells per well in a folate free RPMI media with 10% FBS a day prior to compound addition. Cells were counted visually with a hemocytometer and diluted accordingly to obtain the desired density. Cells were allowed to incubate for 24 hours in a humidified CO2 atmosphere in an incubator at 37° C. The spent media was aspirated and replenished with 100 μL of fresh media containing a 3-fold serial dilution of compound with concentrations ranging from 0.3 to 2000 nM and with a final DMSO concentration of 0.1%. Blank wells without compound were also treated with media containing 0.1% DMSO. […] […] At the end of 70 h, the spent media was removed and cells were washed once with fresh media and then suspended 100 μL of PBS. 100 μL of constituted Cell titer-glo reagent was added to each well and luminescence was recorded with a VICTOR plate reader according to manufacturers' protocol.

[1] = test system: Folate receptor alpha expressing KB cells; assay: Confocal imaging study demonstrating endocytosis and Si-O cleavage; type: cell-based; settings: 50 nM
Experimental: Example 51 as shown above contains a folate receptor targeting ligand, a spacer moiety, a siloxane core and two different fluorescent dyes (BODIPY and rhodamine) positioned on either side of the siloxane core. Folate receptor alpha expressing KB cells were grown in folic acid free media. The cells were incubated for 30 minutes on ice with 50 nM of Example 51, washed with fresh culture medium and then incubated in media at 37° C. for the desired length of time. The fate of both dyes was simultaneously monitored using confocal microscopy using Zeiss LSM 780 laser scanning microscope.

SMILES | EC50 (KB cells) [µM] | % Kill (48 h) (KB cells) [%] | Folate receptor binding on cell surface (colocalization of dyes) ([1]; t=0) | Cleavage of the siloxane core (color separation of the two dyes) ([1]; t=30 min, 37° C.) | Endocytosis of intact conjugate into the cell ([1]; t=30 min, 37° C.)
CC[C@]1(O)C[C@@H]2C[N@@](CCc3c([nH]c4ccccc34)[C@@](C(=O)OC)(c3cc4c(cc3OC)N(C)[C@H]3[C@@](O)(C(=O)NCCC[Si](C)(C)O[Si](C)(C)CSc5ncc(Cn6cc(COCCOCCOCCOCCOCCOCCNC(=O)CC[C@H](NC(=O)c7ccc(NCc8cnc9nc(N)[nH]c(=O)c9n8)cc7)C(=O)O)nn6)cn5)[C@H](O)[C@]5(CC)C=CCN6CC[C@]43[C@@H]65)C2)C1 [Example 24] | ~0.265 | 84 | – | – | –
CCN(CC)c1ccc2c(-c3ccc(S(=O)(=O)NCc4cnc(SC[Si](C)(C)O[Si](C)(C)CCCN5C(=O)CC(SC[C@H](NC(=O)[C@H](CNC(=O)CCC6=[N+]7C(=Cc8c(C)cc(C)n8[B-]7(F)F)C=C6)NC(=O)[C@H](CC(=O)O)NC(=O)CC[C@H](NC(=O)c6ccc(NCc7cnc8nc(N)[nH]c(=O)c8n7)cc6)C(=O)O)C(=O)O)C5=O)nc4)cc3S(=O)(=O)[O-])c3ccc(=[N+](CC)CC)cc-3oc2c1 (some centres unmarked) [Example 51] | – | – | bound to the folate receptor on the cell surface | cleavage of the siloxane core was observed | endocytosis of intact Example 51 into the cell was observed
CC[C@]1(O)C[C@@H]2CN(CCc3c([nH]c4ccccc34)[C@@](C(=O)OC)(c3cc4c(cc3OC)N(C)[C@H]3[C@@](O)(C(=O)NCCC[Si](C)(C)O[Si](C)(C)CSc5ncc(Cn6cc(C[C@H](NC(=O)[C@H](CC(=O)O)NC(=O)[C@H](CC(=O)O)NC(=O)[C@H](CCCNC(=N)N)NC(=O)[C@H](CC(=O)O)NC(=O)CC[C@H](NC(=O)c7ccc(NCc8cnc9nc(N)[nH]c(=O)c9n8)cc7)C(=O)O)C(=O)O)nn6)cn5)[C@H](O)[C@]5(CC)C=CCN6CC[C@]43[C@@H]65)C2)C1 [Example 28] | ~0.156 | 86 | – | – | –
CC[C@H](C)[C@@H]([C@@H](CC(=O)N1CCC[C@H]1[C@H](OC)[C@@H](C)C(=O)N[C@@H](Cc1ccccc1)C(=O)O)OC)N(C)C(=O)[C@@H](NC(=O)[C@H](C(C)C)N(C)C(=O)CCC[Si](C)(C)O[Si](C)(C)c1cccc(CC(=O)NCCOCCOCCOCCOCCOCCn2cc(COCC(COCc3cn(CCOCCOCCOCCOCCOCCNC(=O)Cc4cccc([Si](C)(C)O[Si](C)(C)CCCC(=O)N(C)[C@H](C(=O)N[C@H](C(=O)N(C)[C@@H]([C@@H](C)CC)[C@@H](CC(=O)N5CCC[C@H]5[C@H](OC)[C@@H](C)C(=O)N[C@@H](Cc5ccccc5)C(=O)O)OC)C(C)C)C(C)C)c4)nn3)(COCc3cn(CCOCCOCCOCCOCCOCCNC(=O)Cc4cccc([Si](C)(C)O[Si](C)(C)CCCC(=O)N(C)[C@H](C(=O)N[C@H](C(=O)N(C)[C@@H]([C@@H](C)CC)[C@@H](CC(=O)N5CCC[C@H]5[C@H](OC)[C@@H](C)C(=O)N[C@@H](Cc5ccccc5)C(=O)O)OC)C(C)C)C(C)C)c4)nn3)NC(=O)CCOCCOCCOCCOCCOCCOCCNC(=O)CC[C@H](NC(=O)c3ccc(NCc4cnc5nc(N)[nH]c(=O)c5n4)cc3)C(=O)O)nn2)c1)C(C)C [Example 35, Folate-PEG-Adaptor-PhenylSiLinker-TripleAuristatin] | ~0.008 | – | – | – | –
